In patent publication US7795261B2, “Substituted 1-piperidin-4-yl-4-pyrrolidin-3-yl-piperazine derivatives and their use as neurokinin antagonists” (Janssen Pharmaceutica NV, priority 2002, dated 2010):

Columns and labels:
NK3 = target: T1, NK3 (Homo sapiens, UniProt P29371); test: Signal transduction (ST), intracellular Ca++ (FLIPR), NK3; assay type: cell-based; conditions: read-out: pIC50 NK3 (converted)
T1 sequence (P29371 1-465): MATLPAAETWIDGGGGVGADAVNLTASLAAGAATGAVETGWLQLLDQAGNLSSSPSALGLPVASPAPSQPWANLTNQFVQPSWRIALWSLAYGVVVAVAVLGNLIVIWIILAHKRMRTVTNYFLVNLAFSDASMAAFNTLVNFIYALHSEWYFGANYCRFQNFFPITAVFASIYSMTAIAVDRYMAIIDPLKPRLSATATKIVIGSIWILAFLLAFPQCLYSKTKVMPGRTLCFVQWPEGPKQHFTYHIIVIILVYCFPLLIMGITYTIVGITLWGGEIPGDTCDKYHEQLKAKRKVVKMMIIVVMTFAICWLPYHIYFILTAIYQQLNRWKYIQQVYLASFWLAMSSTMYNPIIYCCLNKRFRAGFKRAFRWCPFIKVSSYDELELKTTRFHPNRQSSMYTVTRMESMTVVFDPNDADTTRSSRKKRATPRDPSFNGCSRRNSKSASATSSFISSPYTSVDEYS
Experimental: [The procedure below names another target; the source lists this target under the same test.] (§1) This test evaluates in vitro functional NK1 antagonistic activity. For the measurements of intracellular Ca^++ concentrations the cells were grown on 96-well (black wall/transparent bottom) plates from Costar for 2 days until they reached confluence. The cells were loaded with 2 μM Fluo3 in DMEM containing 0.1% BSA and 2.5 mM probenecid for 1 h at 37° C. They were washed 3× with a Krebs buffer (140 mM NaCl, 1 mM MgCl2×6H2O, 5 mM KCl, 10 mM glucose, 5 mM HEPES; 1.25 mM CaCl2; pH 7.4) containing 2.5 mM probenecid and 0.1% BSA (Ca^++-buffer). The cells were preincubated with a concentration range of antagonists for 20 min at RT and Ca^++-signals after addition of the agonists were measured in a Fluorescence Image Plate Reader (FLIPR from Molecular Devices, Crawley, England). The peak of the Ca^++-transient was considered as the relevant signal and the mean values of corresponding wells were analysed as described below.
The sigmoidal dose response curves were analysed by computerised curve-fitting, using the GraphPad Program. […] For antagonist responses the IC50-value was calculated using non-linear regression.
The last columns indicates—without being limited therefore—for which the compounds might be most suitable. Of course, since for some neurokinin receptors no data was determined, it is obvious that these compounds might be attributed to another suitable use.

NK1 = NK1 (Homo sapiens, UniProt P25103); test: Signal transduction (ST), intracellular Ca++ (FLIPR), NK1 antagonistic activity; assay type: cell-based; conditions: read-out: pIC50 NK1 (converted)
Experimental: as §1
The sigmoidal dose response curves were analysed by computerised curve-fitting, using the GraphPad Program. […] For antagonist responses the IC50-value was calculated using non-linear regression. […]

Sequence of NK1 (P25103 whole entry): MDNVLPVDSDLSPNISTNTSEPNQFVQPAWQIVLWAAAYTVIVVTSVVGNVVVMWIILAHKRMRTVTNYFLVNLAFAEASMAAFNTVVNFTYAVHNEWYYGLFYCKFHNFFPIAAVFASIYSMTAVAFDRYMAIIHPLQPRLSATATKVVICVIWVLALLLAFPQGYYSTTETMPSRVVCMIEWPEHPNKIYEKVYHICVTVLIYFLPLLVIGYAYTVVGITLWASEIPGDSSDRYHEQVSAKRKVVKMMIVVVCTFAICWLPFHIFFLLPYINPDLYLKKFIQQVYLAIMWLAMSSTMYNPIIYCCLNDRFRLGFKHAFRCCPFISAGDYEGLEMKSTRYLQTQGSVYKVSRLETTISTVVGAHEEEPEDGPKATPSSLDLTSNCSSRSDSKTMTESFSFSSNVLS

Row | Structure (SMILES) | IC50 (NK3) [µM] | IC50 (NK1) [µM]
1 | O=C(c1ccccc1Cl)N1CCC(N2CCN([C@@H]3CCN(C(=O)c4cc(C(F)(F)F)cc(C(F)(F)F)c4)[C@H](Cc4ccc(Cl)c(Cl)c4)C3)CC2)C1 (relative stereo) [Compound 141] | 3.16 | 0.126
2 | O=C(c1cc(C(F)(F)F)cc(C(F)(F)F)c1)N1CC[C@@H](N2CCN(C3CCN(S(=O)(=O)c4cccs4)C3)CC2)C[C@H]1Cc1ccc(Cl)c(Cl)c1 (relative stereo) [Compound 142] | 0.794 | 0.126
3 | O=C(C1CC1)N1CCC(N2CCN([C@@H]3CCN(C(=O)c4cc(C(F)(F)F)cc(C(F)(F)F)c4)[C@H](Cc4ccc(Cl)c(Cl)c4)C3)CC2)C1 (relative stereo) [Compound 143] | 3.16 | 0.0398
4 | O=C(c1cc(C(F)(F)F)cc(C(F)(F)F)c1)N1CC[C@H](N2CCN(C3CCN(S(=O)(=O)c4cccs4)C3)CC2)C[C@H]1Cc1ccc(Cl)c(Cl)c1 (relative stereo) [Compound 163] | 0.158 | 0.0251
5 | O=C(C1CC1)N1CCC(N2CCN(C3CCN(C(=O)c4cc(C(F)(F)F)cc(C(F)(F)F)c4)C(Cc4ccccc4)C3)CC2)C1 (single isomer, unassigned) [Compound 70] | 0.501 | 0.0126
6 | O=C(c1ccccc1Cl)N1CCC(N2CCN(C3CCN(C(=O)c4cc(C(F)(F)F)cc(C(F)(F)F)c4)C(Cc4ccccc4)C3)CC2)C1 (single isomer, unassigned) [Compound 87] | 1.26 | 0.126
7 | O=C(C1CCOC1)N1CCC(N2CCN(C3CCN(C(=O)c4cc(C(F)(F)F)cc(C(F)(F)F)c4)C(Cc4ccccc4)C3)CC2)C1 (single isomer, unassigned) [Compound 129] | – | 0.251
8 | O=C(C1CC1)N1CCC(N2CCN(C3CCN(C(=O)c4cc(C(F)(F)F)cc(C(F)(F)F)c4)C(Cc4ccccc4)C3)CC2)C1 (single isomer, unassigned) [Compound 137] | 6.31 | 0.158
9 | O=C(c1ccoc1)N1CCC(N2CCN(C3CCN(C(=O)c4cc(C(F)(F)F)cc(C(F)(F)F)c4)C(Cc4ccccc4)C3)CC2)C1 (single isomer, unassigned) [Compound 138] | 6.31 | 0.126
10 | O=C(C1CCOC1)N1CCC(N2CCN(C3CCN(C(=O)c4cc(C(F)(F)F)cc(C(F)(F)F)c4)C(Cc4ccccc4)C3)CC2)C1 (single isomer, unassigned) [Compound 139] | 6.31 | 0.158
11 | O=C(c1ccccc1Cl)N1CCC(N2CCN(C3CCN(C(=O)c4cc(C(F)(F)F)cc(C(F)(F)F)c4)C(Cc4ccccc4)C3)CC2)C1 (single isomer, unassigned) [Compound 160] | 0.398 | 0.01
12 | CC(C)(C)OC(=O)N1CCC(N2CCN(C3CCN(C(=O)c4cc(C(F)(F)F)cc(C(F)(F)F)c4)C(Cc4ccc(Cl)c(Cl)c4)C3)CC2)C1 (single isomer, unassigned) [Compound 165] | 0.794 | 0.0501
13 | O=C(c1cc(C(F)(F)F)cc(C(F)(F)F)c1)N1CCC(N2CCN(C3CCNC3)CC2)CC1Cc1ccc(F)c(F)c1 (single isomer, unassigned) [Compound 212] | – | 0.0501
14 | O=C(c1cc(C(F)(F)F)cc(C(F)(F)F)c1)N1CCC(N2CCN(C3CCNC3)CC2)CC1Cc1ccc(F)c(F)c1 (single isomer, unassigned) [Compound 225] | – | 0.0158
15 | CC(C)(C)OC(=O)N1CCC(N2CCN(C3CCN(C(=O)c4cc(C(F)(F)F)cc(C(F)(F)F)c4)C(Cc4ccc(Cl)c(Cl)c4)C3)CC2)C1 (single isomer, unassigned) [Compound 243] | – | 0.2
16 | O=C(c1cc(C(F)(F)F)cc(C(F)(F)F)c1)N1CCC(N2CCN(C3CCN(Cc4ccccc4)C3)CC2)CC1Cc1ccccc1 (stereo not shown) [Compound 1] | – | 0.1
17 | O=C(c1cc(C(F)(F)F)cc(C(F)(F)F)c1)N1CCC(N2CCN(C3CCNC3)CC2)CC1Cc1ccccc1 (stereo not shown) [Compound 2] | – | 0.0631
18 | COC(=O)CCN1CCC(N2CCN(C3CCN(C(=O)c4cc(C(F)(F)F)cc(C(F)(F)F)c4)C(Cc4ccccc4)C3)CC2)C1 (stereo not shown) [Compound 80] | – | 0.1
19 | Cc1cc(C)cc(C(=O)N2CC[C@H](N3CCN(C4CCN(C(=O)c5ccoc5)C4)CC3)C[C@H]2Cc2ccccc2)c1 (stereo partly shown) [Compound 85] | – | 0.0316
20 | CN1CCN(C(C(=O)N2CCC(N3CCN([C@H]4CCN(C(=O)c5cc(C(F)(F)F)cc(C(F)(F)F)c5)[C@H](Cc5ccccc5)C4)CC3)C2)c2ccccc2)CC1 (stereo partly shown) [Compound 105] | – | 0.0631
21 | O=C(c1cc(C(F)(F)F)cc(C(F)(F)F)c1)N1CC[C@H](N2CCN(C3CCNC3)CC2)C[C@@H]1Cc1ccccc1 (stereo partly shown) [Compound 118] | – | 0.126

Row | Structure (SMILES) | IC50 (NK3) [µM] | IC50 (NK1) [µM]
22 | O=C(c1ccccc1)N1CCC(N2CCN([C@@H]3CCN(C(=O)c4cc(C(F)(F)F)cc(C(F)(F)F)c4)[C@H](Cc4ccccc4)C3)CC2)C1 (stereo partly shown) [Compound 136] | – | 0.2
23 | O=C([C@@H]1CCCN1)N1CCC(N2CCN([C@H]3CCN(C(=O)c4cc(C(F)(F)F)cc(C(F)(F)F)c4)[C@H](Cc4ccccc4)C3)CC2)C1 (stereo partly shown) [Compound 144] | – | 0.126
24 | O=C(c1cc(C(F)(F)F)cc(C(F)(F)F)c1)N1CC[C@H](N2CCN([C@H]3CCNC3)CC2)C[C@H]1Cc1ccccc1 [Compound 148] | – | 0.0631
25 | O=C(c1cc(C(F)(F)F)cc(C(F)(F)F)c1)N1CC[C@H](N2CCN([C@@H]3CCNC3)CC2)C[C@H]1Cc1ccccc1 [Compound 149] | – | 0.0398
26 | CN(C)CCN1CCC[C@H]1C(=O)N1CCC(N2CCN([C@H]3CCN(C(=O)c4cc(C(F)(F)F)cc(C(F)(F)F)c4)[C@H](Cc4ccccc4)C3)CC2)C1 (stereo partly shown) [Compound 185] | – | 0.0501
27 | CC(=O)N1CCC[C@H]1C(=O)N1CCC(N2CCN([C@H]3CCN(C(=O)c4cc(C(F)(F)F)cc(C(F)(F)F)c4)[C@H](Cc4ccccc4)C3)CC2)C1 (stereo partly shown) [Compound 186] | – | 0.1
28 | O=C(CN1CCCC1)N1CCC(N2CCN(C3CCN(C(=O)c4cc(C(F)(F)F)cc(C(F)(F)F)c4)C(Cc4ccccc4)C3)CC2)C1 (stereo not shown) [Compound 196] | – | 0.02
29 | O=C(CN1CCOCC1)N1CCC(N2CCN([C@H]3CCN(C(=O)c4cc(C(F)(F)F)cc(C(F)(F)F)c4)[C@H](Cc4ccccc4)C3)CC2)C1 (stereo partly shown) [Compound 197] | – | 0.0251
30 | O=C(CN1CCNCC1)N1CCC(N2CCN([C@H]3CCN(C(=O)c4cc(C(F)(F)F)cc(C(F)(F)F)c4)[C@H](Cc4ccccc4)C3)CC2)C1 (stereo partly shown) [Compound 201] | – | 0.0501
31 | Cc1nccn1CC(=O)N1CCC(N2CCN(C3CCN(C(=O)c4cc(C(F)(F)F)cc(C(F)(F)F)c4)C(Cc4ccccc4)C3)CC2)C1 (stereo not shown) [Compound 209] | – | 0.02
32 | O=C(C1CCNC1)N1CCC(N2CCN([C@H]3CCN(C(=O)c4cc(C(F)(F)F)cc(C(F)(F)F)c4)[C@H](Cc4ccccc4)C3)CC2)C1 (stereo partly shown) [Compound 235] | – | 0.0398
33 | O=C(C1CCCNC1)N1CCC(N2CCN([C@H]3CCN(C(=O)c4cc(C(F)(F)F)cc(C(F)(F)F)c4)[C@H](Cc4ccccc4)C3)CC2)C1 (stereo partly shown) [Compound 240] | – | 0.0316
34 | O=C(C1CCNCC1)N1CCC(N2CCN(C3CCN(C(=O)c4cc(C(F)(F)F)cc(C(F)(F)F)c4)C(Cc4ccccc4)C3)CC2)C1 (stereo not shown) [Compound 241] | – | 0.0316
35 | O=C(c1cc(C(F)(F)F)cc(C(F)(F)F)c1)N1CCC(N2CCN(C3CCNC3)CC2)CC1Cc1ccc(Cl)c(Cl)c1 (stereo not shown) [Compound 244] | – | 0.0794
36 | O=C(C1CC1)N1CC[C@H](N2CCN([C@@H]3CCN(C(=O)c4cc(C(F)(F)F)cc(C(F)(F)F)c4)[C@@H](Cc4ccc(Cl)c(Cl)c4)C3)CC2)C1 [Compound 245] | – | 0.0501
37 | O=C(c1c(Cl)cccc1Cl)N1CC[C@H](N2CCN([C@@H]3CCN(C(=O)c4cc(C(F)(F)F)cc(C(F)(F)F)c4)[C@@H](Cc4ccc(Cl)c(Cl)c4)C3)CC2)C1 [Compound 246] | – | 0.126
38 | CC(C)(C)C(=O)N1CC[C@H](N2CCN([C@@H]3CCN(C(=O)c4cc(C(F)(F)F)cc(C(F)(F)F)c4)[C@@H](Cc4ccc(Cl)c(Cl)c4)C3)CC2)C1 [Compound 247] | – | 0.0316
39 | CC(C)N/C(=C\[N+](=O)[O-])N1CCC(N2CCN(C3CCN(C(=O)c4cc(C(F)(F)F)cc(C(F)(F)F)c4)C(Cc4ccccc4)C3)CC2)C1 (stereo not shown) [Compound 354] | – | 0.0316
40 | COCCOCC(=O)N1CCC(N2CCN([C@H]3CCN(C(=O)c4cc(C(F)(F)F)cc(C(F)(F)F)c4)[C@H](Cc4ccccc4)C3)CC2)C1 (stereo partly shown) [Compound 390] | – | 0.02
41 | O=C(c1cc(C(F)(F)F)cc(C(F)(F)F)c1)N1CCC(N2CCN(C3CCN(CCCCO)C3)CC2)CC1Cc1ccc(Cl)c(Cl)c1 (stereo not shown) [Compound 393] | – | 0.00501
